Data on one compound can be found in US6821746B2, “Methods of screening for FabK antagonists and agonists” (priority 2000, dated 2004).

This assay concerns the target T1, S.pneumoniae FabK, enoyl-ACP reductase (Streptococcus pneumoniae, UniProt Q9FBC5, T318A).
T1 construct: […]; made in house; host or cells: E. coli BL21 (DE3) harboring tRNA vector pRR692; plasmid pET24bSpfabK
The assay can be described thus: FabK enzyme activity assay (NADH oxidation at 340 nm, crotonoyl-ACP reduction). In kind it is biochemical. The settings on record: NH4+ at 100 mM; greatest activation among monovalent cations. As for the experimental part: FabK catalyses the reduction of enoyl-ACPs with the concommitant oxidation of NADH. Crotonoyl-ACP can be prepared as described below. The reduction of crotonoyl-ACP to butyryl-ACP can be monitored by following the change in absorbance at 340 nm as NADH is oxidised.
Assays were carried out in Costar 3696 half-area plates in a final assay volume of 150 ul on a Spectramax platereader. Substrates, NADH and crotonoyl ACP, were incubated with FabK enzyme in 100 mM N-[2-acetamido]-2 iminodiacetic acid (ADA), pH 6.5, 100 mM NH4Cl, 4% glycerol at 30° C. and the reaction monitored at 340 nm. This assaying can also be performed using crotonyl CoA, NADPH or an NADH analogue as a substrate.

T1 sequence (Q9FBC5 whole entry T318A): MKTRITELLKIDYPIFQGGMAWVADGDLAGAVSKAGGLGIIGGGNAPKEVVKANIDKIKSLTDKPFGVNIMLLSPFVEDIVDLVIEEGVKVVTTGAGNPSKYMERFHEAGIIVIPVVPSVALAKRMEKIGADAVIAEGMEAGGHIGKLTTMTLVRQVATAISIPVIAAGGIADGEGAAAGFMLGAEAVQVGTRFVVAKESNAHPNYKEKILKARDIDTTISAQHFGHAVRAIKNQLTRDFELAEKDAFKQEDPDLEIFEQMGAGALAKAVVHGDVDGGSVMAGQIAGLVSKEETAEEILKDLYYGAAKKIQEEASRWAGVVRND

On to `Cl.N` [NH4+, NH4^+], for which the “activation of the FabK reaction over the reaction with no monovalent cations” value is recorded as “about 300 fold”.
